Results published in patent US7056940B2, “Insecticidal 3-(2,6-disubstituted phenyl)-5-[5-arylthien-2-yl]-1,2,4-triazoles” (Dow AgroSciences LLC, priority 2001, dated 2006).

Assays:
Format in all cases: in vivo
[1] = tested on: Tobacco Budworm (Heliothis virescens); assay: Insecticidal test for tobacco budworm, treated cotton cotyledon leaf disc; parameters: key: A: 90–100; B: 80–89; C: 70–79; D: 60–69; E: 50–59; F: less than 50; G: Inactive; conditions: cotton cotyledon leaf-dip, 2nd instar larvae, 5 days
Text: (§1) The compounds are useful for reducing populations of insects and mites and are useful in a method of inhibiting an insect or mite population which comprises applying to a locus of the insect or mite an effective insect- or mite-inactivating amount of a compound of formula (1). The “locus” of insects or mites is a term used herein to refer to the environment in which the insects or mites live or where their eggs are present, including the air surrounding them, the food they eat, or objects which they contact. For example, insects or mites which eat or contact edible or ornamental plants can be controlled by applying the active compound to plant parts such as the seed, seedling, or cutting which is planted, the leaves, stems, fruits, grain, or roots, or to the soil in which the roots are growing. It is contemplated that the compounds might also be useful to protect textiles, paper, stored grain, seeds, domesticated animals, buildings or human beings by applying an active compound to or near such objects. The term “inhibiting an insect or mite” refers to a decrease in the numbers of living insects or mites, or a decrease in the number of viable insect or mite eggs. The extent of reduction accomplished by a compound depends, of course, upon the application rate of the compound, the particular compound used, and the target insect or mite species. At least an inactivating amount should be used. The terms “insect-inactivating amount” and “mite-inactivating amount” are used to describe the amount, which is sufficient to cause a measurable reduction in the treated insect or mite population. Generally an amount in the range from about 1 to about 1000 ppm by weight active compound is used. For example, insects and mites which can be inhibited include, but are not limited to: • Lepidoptera—Heliothis spp., Helicoverpa spp., Spodoptera spp., Mythimna unipuncta, Agrotis ipsilon, Earias spp., Euxoa auxiliaris, Trichoplusia ni, Anticarsia gemmatalis, Rachiplusia nu, Plutella xylostella, Chilo spp., Scirpophaga incertulas, Sesamia inferens, Cnaphalocrocis medinalis, Ostrinia nubilalis, Cydia pomonella, Carposina niponensis, Adoxophyes orana, Archips argyrospilus, Pandemis heparana, Epinotia aporema, Eupoecilia ambiguella, Lobesia botrana, Polychrosis viteana, Pectinophora gossypiella, Pieris rapae, Phyllonorycter spp., Leucoptera malifoliella, Phyllocnisitis citrella • Coleoptera—Diabrotica spp., Leptinotarsa decemlineata, Oulema oryzae, Anthonomus grandis, Lissorhoptrus oryzophilus, Agriotes spp., Melanotus communis, Popillia japonica, Cyclocephala spp., Tribolium spp. • Homoptera—Aphis spp., Myzus persicae, Rhopalosiphum spp., Dysaphis plantaginea, Toxoptera spp., Macrosiphum euphorbiae, Aulacorthum solani, Sitobion avenae, Metopolophium dirhodum, Schizaphis graminum, Brachycolus noxius, Nephotettix spp., Nilaparvata lugens, Sogatella furcifera, Laodelphax striatellus, Bemisia tabaci, Trialeurodes vaporariorum, Aleurodes proletella, Aleurothrixus floccosus, Quadraspidiotus perniciosus, Unaspis yanonensis, Ceroplastes rubens, Aonidiella aurantii • Hemiptera—Lygus spp., Eurygaster maura, Nezara viridula, Piezodorus guildingi, Leptocorisa varicornis • Thysanoptera—Frankliniella occidentalis, Thrips spp., Scirtothrips dorsalis • Isoptera—Reticulitermes flavipes, Coptotermes formosanus • Orthoptera—Blattella germanica, Blatta orientalis, Gryllotalpa spp. • Diptera—Liriomyza spp., Musca domestica, Aedes spp., Culex spp., Anopheles spp. • Hymenoptera—Iridomyrmex humilis, Solenopsis spp., Monomorium pharaonis, Atta spp., Pogonomyrmex spp., Camponotus spp. • Siphonaptera—Ctenophalides spp., Pulex irritans • Acarina—Tetranychus spp., Panonychus spp., Eotetranychus carpini, Phyllocoptruta oleivora, Aculus pelekassi, Brevipalpus phoenicis, Boophilus spp., Dermacentor variabilis, Rhipicephalus sanguineus, Amblyomma americanum, Ixodes spp., Notoedres cati, Sarcoptes scabiei, Dermatophagoides spp. […]

[2] = tested on: Sweetpotato Whitefly (Bemisia tabacia); assay: Insecticidal test for sweetpotato whitefly, spray on cotton plants; parameters: key: A: 90–100; B: 80–89; C: 70–79; D: 60–69; E: 50–59; F: less than 50; G: Inactive; conditions: 200 ppm spray, 13 days, large nymphs
Protocol: Insecticidal Test for Sweetpotato Whitefly (Bemisia tabacia)
Four mg of each test compound was dissolved by adding 4 mL of a 90:10 acetone:ethanol solvent mixture to the vial containing the sample compound. This solution was added to 16 mL of water containing 0.05% Tween 20 surfactant to produce 20 mL of an 200 ppm spray solution.
Five-week-old cotton plants reared in a greenhouse were stripped of all foliage except for the two uppermost true leaves that were greater than 5 cm in diameter. These plants were then placed into a laboratory colony of whiteflies for two days for oviposition by the colony females. All whiteflies were then removed from the test plants with pressurized air. The spray solution was then applied to the test plants with a hand-held syringe fitted with hollow cone nozzle. One mL spray solution was applied to each leaf top and bottom for a total of 4 mL per plant. Four replications of each test compound utilized a total of 16 mL spray solution. Plants were air dried and then placed in a holding chamber (28° C. and 60% RH) for 13 days. Compound efficacy was evaluated by counting, under an illuminated magnifying glass, the number of large nymphs (3rd–4th instar) per leaf.
Percent control based on reduction of large nymphs of a test compound compared to solution-only (no test compound) sprayed plants is reported in Tables 1–4.

[3] = tested on: Cabbage Looper (Trichoplusia ni); assay: Insecticidal test for cabbage looper, treated cabbage leaf disc; parameters: key: A: 90–100; B: 80–89; C: 70–79; D: 60–69; E: 50–59; F: less than 50; G: Inactive; conditions: cabbage leaf-dip, 2nd instar larvae, 5 days
Text: as §1

[4] = tested on: Beet Armyworm (Spodoptera exigua); assay: Insecticidal test for beet armyworm, treated lepidopteran diet; parameters: key: A: 90–100; B: 80–89; C: 70–79; D: 60–69; E: 50–59; F: less than 50; G: Inactive; conditions: on diet surface, second-instar larvae, 5 days
Text: as §1

[5] = tested on: Two-spotted Spider Mite (Tetranychus urticae); assay: Insecticidal test for two-spotted spider mite, ovicide method; parameters: key: A: 90–100; B: 80–89; C: 70–79; D: 60–69; E: 50–59; F: less than 50; G: Inactive; conditions: cotton leaf discs, 6 days
Protocol: Insecticidal Test for Two-spotted Spider Mite (Tetranychus urticae)
Ten adult female two-spotted spider mites were placed on eight 2.2 cm leaf discs of cotton leaf, allowed to oviposit over 24 hours, and thereafter removed. […] Discs were placed on an agar substrate and held at 24° C. and 90% RH for 6 days.

[6] = tested on: Cotton Aphid (Aphis gossypii); assay: Insecticidal test for cotton aphid, spray on infested squash cotyledons; conditions: 50 ppm spray, 3 days
Protocol: Insecticidal Test for Cotton Aphid (Aphis gossypii)
To prepare spray solutions, 1 mg of each test compound was dissolved into 1 mL of a 90:10 acetone:ethanol solvent. This 1 mL of chemical solution was added to 19 mL of water containing 0.05% Tween 20 surfactant to produce a 50 ppm spray solution.
Squash cotyledons were infested with cotton aphid (all life stages) 16–20 hours prior to application of spray solution. The solution was sprayed on both sides of each infested squash cotyledon (0.5 mL×2 each side) with a sweeping action until runoff. The plants were allowed to air dry and held for 3 days in a controlled room at 26° C. and 40% RH after which time the test was graded. Grading was by actual count using a dissecting microscope and comparison of test counts to the untreated check. Results are given in Tables 1–4 as percent control based on population reduction versus the untreated.

| Structure (SMILES) | TBW: activity at 400 ppm against tobacco budworm (% control rating) [1] | WF: activity at 200 ppm against whitefly (% control rating) [2] | CL: activity at 400 ppm against cabbage looper (% control rating) [3] | BAW: activity at 400 ppm against beet armyworm (% control rating) [4] | SM: activity against two-spotted spider mite (% control rating) [5] | CA: activity at 50 ppm against cotton aphid (% control rating) [6] |
| --- | --- | --- | --- | --- | --- | --- |
| COCCOc1cccc(-c2cc(C)c(-c3nc(-c4c(F)cccc4Cl)nn3C)s2)c1 | F (less than 50) | G | G | F (less than 50) | C (70–79) | B (80–89) |
| Cc1cc(-c2ccc(OC(F)(F)C(F)Cl)cc2)sc1-c1nc(-c2c(F)cccc2Cl)nn1C (stereo not drawn) | A (90–100) | F (less than 50) | A (90–100) | A (90–100) | A (90–100) | D (60–69) |
| Cc1cc(-c2ccc(OC(F)(F)C(Cl)Cl)cc2)sc1-c1nc(-c2c(F)cccc2Cl)nn1C | A (90–100) | E (50–59) | A (90–100) | A (90–100) | B (80–89) | A (90–100) |
| Cc1cc(-c2ccc(OC(F)(F)C(F)C(F)(F)F)cc2)sc1-c1nc(-c2c(F)cccc2Cl)nn1C (stereo not drawn) | A (90–100) | F (less than 50) | A (90–100) | A (90–100) | A (90–100) | B (80–89) |
| Cn1nc(-c2c(F)cccc2Cl)nc1-c1sc(-c2ccc(OC(F)(F)C(F)Br)cc2)cc1Cl (stereo not drawn) | A (90–100) | G | A (90–100) | A (90–100) | C (70–79) | E (50–59) |
| Cn1nc(-c2c(F)cccc2Cl)nc1-c1cc(-c2ccc3c(c2)OCC3)sc1Cl | F (less than 50) | G | A (90–100) | G | G | C (70–79) |
| Cn1nc(-c2c(F)cccc2Cl)nc1-c1cc(-c2cccc(OC(F)(F)F)c2)sc1Cl | G | G | A (90–100) | G | A (90–100) | A (90–100) |
| Cn1nc(-c2c(F)cccc2Cl)nc1-c1csc(-c2ccc(Cl)cc2F)c1 | F (less than 50) | F (less than 50) | A (90–100) | G | A (90–100) | B (80–89) |
| Cn1nc(-c2c(F)cccc2Cl)nc1-c1cc(-c2ccc(C(F)(F)F)cc2F)sc1Cl | F (less than 50) | F (less than 50) | A (90–100) | A (90–100) | G | F (less than 50) |
| Cn1nc(-c2c(F)cccc2Cl)nc1-c1cc(-c2ccc(Cl)cc2F)sc1Cl | F (less than 50) | F (less than 50) | A (90–100) | A (90–100) | A (90–100) | F (less than 50) |
